{"source": "paper PMC11847541", "about": "“Liver fatty acid binding protein FABP1 transfers substrates to cytochrome P450 4A11 for catalysis” (The Journal of Biological Chemistry, 2025)", "key": {"P450 4A11": {"test_system": "P450 4A11", "design": "species or system human", "description": "To predict the potential effects of FABP1 on P450 4A11 catalysis, we programmed two computational models in KinTek Explorer to reflect those presented in Figure 2 (i.e., free ligand model versus direct transfer model). The models were equipped with the rate constants and/or Kd values estimated for either palmitate or DAUDA (where applicable) and for protein–protein binding, which are summarized in Table 2. As is indicated in Table 2, certain rate constants necessary for the modeling are estimated based on a known Kd value and an individual known rate constant. To predict the kinetic result of the free ligand model, the rate(s) of transfer (k6, k-6) were set to a value of zero, reflecting the predicted inability of the two proteins to interact. The interaction of P450 and FABP1 occurs in the absence of substrate, although whether the P450–FABP1 (EF) complex can accept a substrate (to form EFS) is unknown. The modeling software estimated a 1 µM Kd value for the interaction with the assumption that the complex could not accept a cytosolic substrate. To predict the kinetic result of the direct transfer model, our experimentally estimated rates of transfer were allowed to be fit by the model. Aside from the manipulations with the transfer rate, all remaining rate constants were input as they appear in Table 2.\nWhen provided the experimental conditions for the kinetic assays in Figure 12, the free ligand model predicted that the rate of P450 catalysis decreases rapidly as the concentration of FABP1 approaches the concentration of substrate in the experiment (Fig. 12A, blue line), which is intuitive (given the difference in palmitate binding affinities; Table 1, Table 2 and 2). Provided the same conditions, the direct transfer model predicted a slight attenuation of P450 activity (as the concentration of FABP1 approaches the total concentration of substrate (S)), which yielded an excellent fit to our experimental data when a rate of P450 catalysis of 0.11 s^−1 was used (Fig. 12A, red line). […] In a separate experiment, the free ligand model similarly predicted that P450 activity would not be observed when the concentration of substrate was below the concentration of FABP1 (Fig. 12B, blue line). The direct transfer model predicted a hyperbolic product distribution (for [S] < [FABP1]) and gave a satisfactory fit to the experimental data when the same rates of ES^′→ES described earlier were used, but the rate of P450 catalysis was reduced 20-fold (to 0.005 s^−1) (Fig. 12B, red line).\nData were imported into KinTek Explorer software (version 11.01; KinTek, https://kintekcorp.com/software) ([76]) as Excel txt files and processed using an Apple computer (operating system 11.6.2, Apple). The kinetic modeling of a binding titration of FABP1 with palmitate (Fig. S13) as well as the txt files used for all kinetic modeling are provided in the Supporting Information."}, "[1]": {"design": "method as in PMID 2335507", "conditions": "cited from earlier work"}, "FABP1": {"molecular_target": "T1, FABP1 (Homo sapiens, UniProt P07148)", "T1 construct": "GST (N, cleaved yes); made in house; host or cells: Escherichia coli DH5α", "T1 sequence (P07148 with tags, fused parts or gaps)": "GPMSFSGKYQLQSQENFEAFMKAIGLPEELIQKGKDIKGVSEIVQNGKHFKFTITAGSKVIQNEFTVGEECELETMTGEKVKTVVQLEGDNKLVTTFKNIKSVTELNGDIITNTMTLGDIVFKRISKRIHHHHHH", "conditions": "human FABP1, fluorescence displacement assay; read-out: Kd; cited from earlier work"}, "DAUDA–FABP1": {"molecular_target": "T2, DAUDA–FABP1 (Homo sapiens, UniProt P07148)", "T2 construct": "GST (N, cleaved yes); made in house; host or cells: Escherichia coli DH5α", "T2 sequence (P07148 with tags, fused parts or gaps)": "T1 sequence (P07148 with tags, fused parts or gaps)", "experiment": "Stopped-flow kinetics of palmitate binding to DAUDA–FABP1", "procedure": "As mentioned previously, palmitate was selected to measure binding kinetics to DAUDA–FABP1 because of the low Kd observed with the protein (Fig. 5D, Table 1). When a ligand binds to DAUDA-bound FABP1, DAUDA is displaced (potentially to the second ligand-binding site, forming a ternary complex; Figure 2, Figure 5 and Figure 2, Figure 5A) and attenuates the fluorescence of the system (Fig. 5). Taking advantage of this phenomenon, we preincubated FABP1 (0.5 μM) with DAUDA (0.5 μM) to form the fluorescent complex. This complex was then rapidly mixed with palmitate (0.5 μM to 25 μM), and the attenuation of fluorescence was monitored as palmitate binds and displaces DAUDA. The data were fit to double exponential equations, and the rate of initial binding was not observed to vary with palmitate concentration (Fig. 7). A kon value (k5) of 2.3 ± 0.2 × 10^7 M^−1 s^−1 was calculated from the data (Fig. 7A).\nFigure 7 Kinetics of binding of palmitate to FABP1. A stoichiometric mixture of DAUDA and FABP1 (0.5 μM) was rapidly combined with (A) 0.5 μM, (B) 5 μM, (C) 12.5 μM, and (D) 25 μM palmitate, and the attenuation of fluorescence (λex = 335 nm, λem > 420 nm) was monitored over time (as FD → FDS, Fig. 5A). The plots were fit to double exponential equations, and the following rate constants for each phase were extracted: A, k1 11 ± 1 s^−1, k2 0.04 ± 0.003 s^−1; B, k1 16± 1s^−1, k2 0.017 ± 0.004 s^−1; C, k1 14 ± 1 s^−1, k2 0.05 ± 0.01 s^−1; D, k1 13 ± 1 s^−1, k2 0.07 ± 0.01 s^−1. Each trace corresponds to ≥6 averaged replicate traces. DAUDA, 11-dansylaminoundecanoic acid; FABP1, fatty acid binding protein.\nThe kon determination of FABP1 with palmitate was done in the same manner as described with DAUDA but with the modification that the solutions mixed in the stopped-flow spectrofluorometer were (A) FABP1 (1 μM) and DAUDA (1 μM, aliquoted from a stock solution prepared in K2CO3 [50 mM], see “Preparation of DAUDA stock solutions”) and (B) palmitate (1–50 μM, aliquoted from a stock solution prepared in K2CO3 [50 mM]). Both mixing solutions (2 ml) were prepared in potassium phosphate buffer (100 mM, pH 7.4). The data collection, processing, and analysis proceeded via the same steps described earlier. The only difference in interpretation is that the signal (binding of palmitate) displaces DAUDA in the FABP1-binding site, so we observe an attenuation of fluorescence."}}, "note": "Where two headings read alike, the source gives them in different places."}
{"molecule": "FABP1: delipidated recombinant liver fatty acid binding protein with C-terminal hexahistidine tag", "values": [{"measurement": "Kd", "setting": "P450 4A11", "result": 1000, "unit": "nM"}, {"measurement": "rate of FABP1 lipid transfer to phospholipid membranes", "setting": "[1]", "result": "~0.005", "unit": "s⁻¹"}]}
{"molecule": "CCCCCCCCCCCCCCCC(=O)O", "note": "[Palmitate (C16), palmitate]", "values": [{"measurement": "Kd", "setting": "FABP1", "result": "38 ± 1", "unit": "nM"}, {"measurement": "k1 (fast phase), palmitate binding to DAUDA–FABP1", "setting": "DAUDA–FABP1; 0.5 μM palmitate", "result": "11 ± 1", "unit": "s⁻¹"}, {"measurement": "k2 (slow phase), palmitate binding to DAUDA–FABP1", "setting": "DAUDA–FABP1; 0.5 μM palmitate", "result": "0.04 ± 0.003", "unit": "s⁻¹"}, {"measurement": "k1 (fast phase), palmitate binding to DAUDA–FABP1", "setting": "DAUDA–FABP1; 5 μM palmitate", "result": "16 ± 1", "unit": "s⁻¹"}, {"measurement": "k2 (slow phase), palmitate binding to DAUDA–FABP1", "setting": "DAUDA–FABP1; 5 μM palmitate", "result": "0.017 ± 0.004", "unit": "s⁻¹"}, {"measurement": "k1 (fast phase), palmitate binding to DAUDA–FABP1", "setting": "DAUDA–FABP1; 12.5 μM palmitate", "result": "14 ± 1", "unit": "s⁻¹"}, {"measurement": "k2 (slow phase), palmitate binding to DAUDA–FABP1", "setting": "DAUDA–FABP1; 12.5 μM palmitate", "result": "0.05 ± 0.01", "unit": "s⁻¹"}, {"measurement": "k1 (fast phase), palmitate binding to DAUDA–FABP1", "setting": "DAUDA–FABP1; 25 μM palmitate", "result": "13 ± 1", "unit": "s⁻¹"}, {"measurement": "k2 (slow phase), palmitate binding to DAUDA–FABP1", "setting": "DAUDA–FABP1; 25 μM palmitate", "result": "0.07 ± 0.01", "unit": "s⁻¹"}, {"measurement": "kon", "setting": "DAUDA–FABP1; DAUDA and FABP1 0.5 μM each, read-out: kon of palmitate to DAUDA–FABP1 (k5)", "result": "2.3e+07", "unit": "M⁻¹ s⁻¹"}, {"measurement": "reduction of rate of P450 catalysis, Fig. 12B vs Fig. 12A model", "setting": "P450 4A11", "result": 20, "unit": "fold"}, {"measurement": "forward rate of ES′→ES conformational transition", "setting": "P450 4A11; direct transfer model", "result": 0.086, "unit": "s⁻¹"}, {"measurement": "reverse rate of ES′→ES conformational transition", "setting": "P450 4A11; direct transfer model", "result": 0.013, "unit": "s⁻¹"}, {"measurement": "rate of P450 catalysis used in direct transfer model", "setting": "P450 4A11; fit to Fig. 12A (FABP1 varied, palmitate 5 μM)", "result": 0.11, "unit": "s⁻¹"}, {"measurement": "rate of P450 catalysis used in direct transfer model", "setting": "P450 4A11; fit to Fig. 12B (palmitate varied, FABP1 5 μM)", "result": 0.005, "unit": "s⁻¹"}]}
